Results on 1 compound are retold here after patent US20080268044A1, “Novel Process and Formulations” (Glaxo Group Limited, priority 2005, published 2008).

The series is described as follows: Comparison of salt forms (solubility, stability). It is filed as physicochemical.

On to `Cc1cc(F)ccc1-c1nc(NC(CO)CO)nc2c1ccc(=O)n2-c1c(F)cccc1F` [sulphate, 8-(2,6-difluorophenyl)-4-(4-fluoro-2-methylphenyl)-2-{[2-hydroxy-1-(hydroxymethyl)ethyl]amino}pyrido[2,3-d]pyrimidin-7(8H)-one], for which the “stability of salt forms (comparison)” value is recorded as “less stable than the other salt forms”.
